Our source for the IC50 values is BindingDB's records for doi:10.1111/cbdd.12243 (Shandong Institute of Pharmaceutical Industry, 2014).

Test in all cases: Z-LYTE biochemical assay
What all share (settings): 25 °C

For experiment [1], the target named is Tyrosine-protein kinase ABL1 (Homo sapiens, UniProt P00519). The protocol: (§1) The reaction was stopped by the addition of 5 µL stop reagent.
In experiment [2] the target is Vascular endothelial growth factor receptor 2 (Homo sapiens, UniProt P35968). Here is the method: as §1
Chain of Vascular endothelial growth factor receptor 2 (P35968 whole entry): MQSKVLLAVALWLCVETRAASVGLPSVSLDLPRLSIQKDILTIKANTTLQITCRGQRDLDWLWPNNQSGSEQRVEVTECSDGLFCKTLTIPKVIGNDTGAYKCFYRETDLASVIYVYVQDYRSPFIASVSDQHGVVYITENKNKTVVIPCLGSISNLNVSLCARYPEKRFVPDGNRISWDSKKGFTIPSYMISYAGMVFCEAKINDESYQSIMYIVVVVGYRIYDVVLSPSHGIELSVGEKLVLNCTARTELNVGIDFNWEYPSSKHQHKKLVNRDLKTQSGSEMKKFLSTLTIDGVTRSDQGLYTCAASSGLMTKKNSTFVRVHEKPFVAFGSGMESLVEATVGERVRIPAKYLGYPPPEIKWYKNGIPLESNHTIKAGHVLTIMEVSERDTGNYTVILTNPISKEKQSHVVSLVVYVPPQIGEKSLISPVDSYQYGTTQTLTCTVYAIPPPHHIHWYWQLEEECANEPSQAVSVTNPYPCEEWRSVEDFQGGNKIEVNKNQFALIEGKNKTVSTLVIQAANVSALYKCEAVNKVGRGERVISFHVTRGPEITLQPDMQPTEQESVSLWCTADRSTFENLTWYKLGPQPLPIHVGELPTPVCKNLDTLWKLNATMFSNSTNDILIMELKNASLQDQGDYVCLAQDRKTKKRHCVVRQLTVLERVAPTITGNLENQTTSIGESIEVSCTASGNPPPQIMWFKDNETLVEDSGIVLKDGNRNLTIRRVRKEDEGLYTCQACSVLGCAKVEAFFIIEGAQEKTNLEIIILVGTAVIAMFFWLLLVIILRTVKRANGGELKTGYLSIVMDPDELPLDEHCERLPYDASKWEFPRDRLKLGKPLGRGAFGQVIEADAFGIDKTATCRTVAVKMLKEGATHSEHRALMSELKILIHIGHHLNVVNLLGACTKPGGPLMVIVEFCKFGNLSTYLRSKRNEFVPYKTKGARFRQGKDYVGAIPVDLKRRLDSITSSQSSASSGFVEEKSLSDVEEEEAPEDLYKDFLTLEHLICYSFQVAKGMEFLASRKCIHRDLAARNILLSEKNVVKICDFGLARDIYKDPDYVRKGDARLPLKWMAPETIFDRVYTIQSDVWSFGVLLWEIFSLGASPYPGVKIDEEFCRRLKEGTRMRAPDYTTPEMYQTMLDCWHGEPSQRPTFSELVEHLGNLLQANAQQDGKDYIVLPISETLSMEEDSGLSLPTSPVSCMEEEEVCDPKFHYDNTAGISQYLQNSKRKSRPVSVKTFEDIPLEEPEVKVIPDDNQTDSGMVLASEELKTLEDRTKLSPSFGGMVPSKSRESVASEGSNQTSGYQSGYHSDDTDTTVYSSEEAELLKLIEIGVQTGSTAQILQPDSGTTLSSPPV
In experiment [3] the target is Receptor protein-tyrosine kinase (Homo sapiens, UniProt Q504U8). The protocol: as §1
Chain of Receptor protein-tyrosine kinase (Q504U8 whole entry): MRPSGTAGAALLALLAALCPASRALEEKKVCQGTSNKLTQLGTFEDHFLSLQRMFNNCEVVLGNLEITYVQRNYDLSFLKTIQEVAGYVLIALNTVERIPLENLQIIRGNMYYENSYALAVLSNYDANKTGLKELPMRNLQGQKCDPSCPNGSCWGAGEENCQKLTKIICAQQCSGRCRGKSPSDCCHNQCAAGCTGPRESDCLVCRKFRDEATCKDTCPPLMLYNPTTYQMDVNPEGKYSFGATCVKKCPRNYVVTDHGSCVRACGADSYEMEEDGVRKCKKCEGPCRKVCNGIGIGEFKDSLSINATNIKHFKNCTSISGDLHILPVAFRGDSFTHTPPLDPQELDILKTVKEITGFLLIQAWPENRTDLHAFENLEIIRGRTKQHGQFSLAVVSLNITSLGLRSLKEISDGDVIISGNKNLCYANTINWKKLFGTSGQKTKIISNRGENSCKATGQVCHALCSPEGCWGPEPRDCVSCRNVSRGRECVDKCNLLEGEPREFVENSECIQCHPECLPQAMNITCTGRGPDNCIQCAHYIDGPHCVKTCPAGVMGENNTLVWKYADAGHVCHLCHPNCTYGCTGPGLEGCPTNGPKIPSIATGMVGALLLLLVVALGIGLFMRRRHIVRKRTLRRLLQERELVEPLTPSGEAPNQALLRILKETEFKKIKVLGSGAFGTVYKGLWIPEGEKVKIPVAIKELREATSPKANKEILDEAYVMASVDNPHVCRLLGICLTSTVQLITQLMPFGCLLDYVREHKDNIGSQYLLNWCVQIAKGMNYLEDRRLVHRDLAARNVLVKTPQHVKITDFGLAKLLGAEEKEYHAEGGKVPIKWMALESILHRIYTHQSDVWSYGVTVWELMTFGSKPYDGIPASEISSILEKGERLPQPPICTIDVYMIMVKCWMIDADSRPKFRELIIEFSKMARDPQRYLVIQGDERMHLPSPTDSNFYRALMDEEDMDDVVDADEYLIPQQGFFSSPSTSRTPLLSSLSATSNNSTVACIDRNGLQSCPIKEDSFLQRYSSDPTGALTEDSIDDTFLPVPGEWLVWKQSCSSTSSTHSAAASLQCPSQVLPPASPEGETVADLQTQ

Chain of Tyrosine-protein kinase ABL1 (P00519 whole entry): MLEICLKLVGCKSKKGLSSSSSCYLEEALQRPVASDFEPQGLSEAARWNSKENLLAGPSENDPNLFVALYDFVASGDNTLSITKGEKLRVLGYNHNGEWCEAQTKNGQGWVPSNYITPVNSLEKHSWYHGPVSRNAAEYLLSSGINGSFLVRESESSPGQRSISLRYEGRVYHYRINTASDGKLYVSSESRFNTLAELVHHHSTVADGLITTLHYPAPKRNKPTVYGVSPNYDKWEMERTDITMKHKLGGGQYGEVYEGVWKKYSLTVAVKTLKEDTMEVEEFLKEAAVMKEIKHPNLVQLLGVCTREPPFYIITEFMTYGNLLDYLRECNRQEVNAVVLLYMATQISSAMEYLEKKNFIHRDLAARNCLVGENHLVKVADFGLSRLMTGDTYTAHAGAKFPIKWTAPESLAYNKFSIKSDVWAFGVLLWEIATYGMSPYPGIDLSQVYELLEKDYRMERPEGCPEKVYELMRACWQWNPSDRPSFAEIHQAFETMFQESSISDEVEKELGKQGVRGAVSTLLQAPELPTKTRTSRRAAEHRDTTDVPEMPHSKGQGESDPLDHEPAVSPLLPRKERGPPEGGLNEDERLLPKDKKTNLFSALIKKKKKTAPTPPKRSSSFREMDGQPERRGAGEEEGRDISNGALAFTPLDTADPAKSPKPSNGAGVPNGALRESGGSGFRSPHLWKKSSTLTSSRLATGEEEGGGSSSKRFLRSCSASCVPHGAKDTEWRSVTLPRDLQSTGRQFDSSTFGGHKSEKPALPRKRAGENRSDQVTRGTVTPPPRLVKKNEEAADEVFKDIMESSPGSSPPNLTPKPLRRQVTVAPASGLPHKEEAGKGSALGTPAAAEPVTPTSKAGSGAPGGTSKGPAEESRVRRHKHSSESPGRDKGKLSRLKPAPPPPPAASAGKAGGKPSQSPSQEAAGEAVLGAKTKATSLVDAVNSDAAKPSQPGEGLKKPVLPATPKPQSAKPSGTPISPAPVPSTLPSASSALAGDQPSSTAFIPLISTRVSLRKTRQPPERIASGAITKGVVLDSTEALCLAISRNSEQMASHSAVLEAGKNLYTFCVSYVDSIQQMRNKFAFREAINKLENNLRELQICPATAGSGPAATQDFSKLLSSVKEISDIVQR

The term IC50 denotes the point on the concentration scale where inhibition reaches its midpoint. Low values mean higher potency, high ones lower potency. Regarding `Cc1cc(C)nc(NS(=O)(=O)c2ccc(Nc3nccc(N(C)c4ccc5c(C)n(C)nc5c4)n3)cc2)n1` [4-((4-((2,3-dimethyl-2H-indazole-6-yl)(methyl)amino)pyrimidin-2-yl)amino)-N-(4,6-dimethylpyrimidin-2-yl)benzenesulfonamide (P2e)], the IC50 came out at 22 nM in experiment [1] and 12 nM in experiment [2].

With `Cc1ccnc(NS(=O)(=O)c2ccc(Nc3nccc(N(C)c4ccc5c(C)n(C)nc5c4)n3)cc2)n1` [4-((4-((2,3-dimethyl-2H-indazole-6-yl)(methyl)amino)pyrimidin-2-yl)amino)-N-(4-methylpyrimidin-2-yl)benzenesulfonamide (P2d)], the IC50 in experiment [1] came to 62 nM; in experiment [2], 25 nM.

Turning to `Cc1cc(NS(=O)(=O)c2ccc(Nc3nccc(N(C)c4ccc5c(C)n(C)nc5c4)n3)cc2)no1` [4-((4-((2,3-dimethyl-2H-indazole-6-yl)(methyl)amino)pyrimidin-2-yl)amino)-N-(5-methylisoxazol-3-yl)benzenesulfonamide (P2f)], the IC50 in experiment [1] stood at 320 nM; in experiment [2], 650 nM.

As to `Cc1c2ccc(N(C)c3ccnc(Nc4ccc(S(=O)(=O)Nc5ncccn5)cc4)n3)cc2nn1C` [4-((4-((2,3-dimethyl-2H-indazole-6-yl)(methyl)amino)pyrimidin-2-yl)amino)-N-(pyrimidin-2-yl) benzenesulfonamide (P2c)], the IC50 in experiment [1] was found to be 120 nM; in experiment [2], 29 nM.

`Cc1cc(C)nc(NS(=O)(=O)c2ccc(Nc3nccc(Nc4ccc5c(C)n(C)nc5c4)n3)cc2)n1` [4-((4-((2,3-dimethyl-2H-indazole-6-yl)amino)pyrimidin-2-yl)amino)-N-(4,6-dimethylpyrimidin-2-yl)benzenesulfonamide (P1e)]: the results for the IC50 in experiment [1] and in experiment [2] were 360 nM and 120 nM, respectively.

With `Cc1ccnc(NS(=O)(=O)c2ccc(Nc3nccc(Nc4ccc5c(C)n(C)nc5c4)n3)cc2)n1` [4-((4-((2,3-dimethyl-2H-indazole-6-yl)amino)pyrimidin-2-yl)amino)-N-(4-methylpyrimidin-2-yl) benzenesulfonamide (P1d)], the IC50 in experiment [1] came out at 280 nM; in experiment [2] it was 160 nM.

Turning to `Cc1cc(NS(=O)(=O)c2ccc(Nc3nccc(Nc4ccc5c(C)n(C)nc5c4)n3)cc2)no1` [4-((4-((2,3-dimethyl-2H-indazole-6-yl)amino)pyrimidin-2-yl)amino)-N-(5-methylisoxazol-3-yl) benzenesulfonamide (P1f)], the figures for the IC50 in experiment [1] and in experiment [2] were 2180 nM and 1630 nM, respectively.

Take `Cc1c2ccc(Nc3ccnc(Nc4ccc(S(=O)(=O)Nc5ncccn5)cc4)n3)cc2nn1C` [4-((4-((2,3-dimethyl-2H-indazole-6-yl)amino)pyrimidin-2-yl)amino)-N-(pyrimidin-2-yl) benzenesulfonamide (P1c)]: the IC50 in experiment [1] came out at 460 nM; in experiment [2] it was 34 nM.

As for `Cc1c2ccc(N(C)c3ccnc(Nc4ccc(S(=O)(=O)NC(=N)N)cc4)n3)cc2nn1C` [N-carbamimidoyl-4-((4-((2,3-dimethyl-2H-indazole-6-yl)(methyl)amino)pyrimidin-2-yl)amino) benzenesulfonamide (P2g)], the figures for the IC50 in experiment [1], in experiment [2] and in experiment [3] were 360 nM, 720 nM and 1370 nM, respectively.

Take `Cc1c2ccc(Nc3ccnc(Nc4ccc(S(=O)(=O)NC(=N)N)cc4)n3)cc2nn1C` [N-carbamimidoyl-4-((4-((2,3-dimethyl-2H-indazole-6-yl)amino)pyrimidin-2-yl)amino) benzenesulfonamide (P1g)]: the IC50 was 930 nM in experiment [1] and 1340 nM in experiment [2].
